Reference: a melting point compilation (Tetko et al.; mined from patent text by program, amines drawn as free bases though some values may be those of a salt)

Row | melting point | SMILES
1 | > 300 °C | NC(=O)Cn1c(=O)c(=O)[nH]c2ccccc21
2 | 140 °C | C=C(Cl)C[C@@H](CC(=O)N(CC(=O)N(C)CCc1ccccn1)CC1CCCCC1)C(=O)N[C@@H](CC1CCCCC1)[C@@H](O)[C@@H](O)CC(C)C
3 | 157 to 158 °C | Cc1cc(CCC(=O)c2ccc(-c3ccc(C(F)(F)F)cc3)s2)cc(C)c1OC(C)(C)C(=O)O
4 | 152 °C | O=C(Nc1ccc(-c2ccccc2)cc1)c1cccc([N+](=O)[O-])c1O
5 | 118 to 121 °C | Nc1ncc2c(n1)CCC(CNC(=O)[C@@H]1CCCN1C(=O)[C@@H](CC1CCCCC1)NS(=O)(=O)Cc1ccccc1)C2 (stereo partly specified)
6 | 174 to 176 °C | CC(=O)OC(C)c1cc2c(s1)C(=O)c1ccsc1C2=O (stereo unspecified)
7 | 86 to 88 °C | Cc1ccc(OCC2CN(C(C)C)C(=O)O2)cn1 (stereo unspecified)
8 | 151 to 153 °C | COc1ccc(C(=O)OC2CC3C(=O)NC4(C(=O)NS(=O)(=O)C5CC5)CC4C=CCCCCCC(NC(=O)OC(C)(C)C)C(=O)N3C2)cc1 (stereo unspecified)
9 | 163 to 165 °C | CC(=O)N1CCC(O)(Cn2nc(-c3c(-c4ccccc4)nn4ccccc34)ccc2=O)CC1
10 | 73 to 76 °C | OC(COc1ccc(Cl)cc1)CN1CCN(c2ncccc2F)CC1 (stereo unspecified)
11 | 188 to 189 °C | CSc1nn2c(N3CCN(C)CC3)cc(C)nc2c1S(=O)(=O)c1cccnc1
12 | 148 to 149 °C | CCn1nc(-c2ccccc2)c(C(C)=O)c(Nc2ccc(Br)c3cccnc23)c1=O
13 | 134 to 136 °C | CC1(C)CCC(C)(C)c2cc(C(=O)Nc3ccc(OCCN4CCOCC4)cc3)ccc21
14 | > 300 °C | CC1(C)CC(=O)C2=C(C1)NC1=C(C(=O)CC(C)(C)C1)C2c1ccc(Cl)c(Cl)c1
15 | 54.1 to 56 °C | CCOP(=O)(OCC)c1c(-c2c(OC)ccc3ccccc23)c(C)c2c(c1-c1ccccc1)COC2
16 | 57 to 60 °C | CCCCCCOc1nc(N)c2ncn(C3CCCCC3)c2n1
17 | 74 to 76 °C | CCCCc1ccc(-c2ccccc2)c(C(=O)O)c1
18 | 291 °C | Cn1cc(CC(NC(=O)CCCC(=O)O)C(=O)NCCCCNC(=N)N)c2ccccc21 (stereo unspecified)
19 | 145 °C | CCC(C)n1ncn(-c2ccc(N3CCN(c4ccc(OC)cc4)CC3)c(Br)c2)c1=O (stereo unspecified)
20 | 130 °C | CC(C)C(C(N)=S)N(C)C(=O)OCc1ccccc1 (stereo unspecified)
21 | 235 to 236 °C | Cc1scc2c1C(=O)Nc1ccccc1N2C(=O)Cl
22 | 156 to 158 °C | CCOC(=O)Cc1ccc(CC(=O)c2c(O)c3cccnc3n(-c3ccccc3)c2=O)cc1
23 | 138 °C | O=C(O)CCC(=O)NCc1ccccc1

Row | melting point | SMILES
24 | 96 to 96.3 °C | CCCCCc1ccc(-c2ncc(C#N)c(Cl)n2)cc1
25 | 127 to 128 °C | C[C@@H](C(=O)c1ccccc1)[C@H](NC(=O)C(F)(F)F)C(=O)OC(C)(C)C
26 | 134 to 136 °C | O=C1CCN(CCCn2c(=O)[nH]c3ccccc32)CC1
27 | 118 to 120 °C | COc1ccc(S(=O)(=O)C(CCCc2ccccc2)(CCCc2ccccc2)C(=O)NO)cc1
28 | 148 to 150 °C | CCCCCCCCCCCCCCc1c[nH]c(C(=O)O)c1
29 | 121 to 123 °C | CN(CCN(C)C1=C(O)C(=O)c2ccccc2C1=O)Cc1ccccc1
30 | 168 °C | CCCCNCCC(=O)Nc1ccc2c(c1)C(=O)c1cc(NC(=O)CCNCCCC)ccc1C2=O
31 | 136 °C | CNc1n[nH]c(=O)n1N=C(C)CC(C)C
32 | 73 to 75 °C | Cc1nn(-c2cccnc2)cc1NCC1CC1
33 | 126 °C | Cc1nc2n(c(=O)c1CCN1CCC(C(=O)c3ccc(F)cc3)CC1)CCCN2Cc1ccccc1
34 | 172 to 173 °C | CC1Nc2ccc(-c3ccc(C#N)s3)cc2C(C)(C)O1 (stereo unspecified)
35 | 206 °C | O=c1ncc(Br)cn1CSc1ccc(F)cc1
36 | 144 to 146 °C | Cn1ncnc1COc1nc2c(cc1-c1ccccc1)nnn2-c1ccccc1F
37 | 172 to 173 °C | CNC(=S)C1(c2ccc(Cl)nc2)CCCCC1=O (stereo unspecified)
38 | 67 to 67.5 °C | O=C(Oc1ccc(CCN(F)F)cc1)c1ccccc1
39 | 195 to 201 °C | CC(=O)OC1C(CO)OC(n2cnc3c(N)ncnc32)C1O (stereo unspecified)
40 | > 330 °C | O=C1Cc2c([nH]c3ccc(I)cc23)-c2ncccc2N1
41 | 70 to 73 °C | COc1ccc(C=CC(=O)OCCC(C)CCc2ccccc2)c(O)c1 (stereo unspecified)
42 | 182 to 184 °C | Cc1c(-c2ccccc2)nc(C(C)C)c(CO)c1-c1ccc(F)cc1
43 | 122 to 125 °C | CC(C)C1C(=O)Nc2ccc(OCC3CO3)cc21 (stereo unspecified)
44 | 108 °C | O=C(CCCCCNC(=O)OCc1ccccc1)NCCc1ccc(O)cc1
45 | 171 °C | COC(=O)c1cc(C(=O)c2c(C)c(NC(=O)c3cccc(OCCOS(C)(=O)=O)c3)c3ccccn23)ccc1N
46 | 149 to 151 °C | CC(=O)OCC(=O)C1(OC(C)=S)CCC2C3CC(C)C4=CC(=O)C=CC4(C)C3C(O)CC21C (stereo unspecified)

Row | melting point | SMILES
47 | 72 to 73 °C | CC(C)CCCC(C)CC(=O)Oc1ccc(-c2ccc(OC(=O)CC(C)CCCC(C)C)cc2)cc1 (stereo unspecified)
48 | 215 to 216 °C | Brc1cccc2ncn3ccnc3c12
49 | 150 to 151 °C | Cc1c(C)c2c(c(C)c1N)OC(C)(C)C2=O
50 | 65 to 68 °C | CC(=O)N1CCCc2ccc(C(C)NC(=O)C=Cc3ccccc3)cc21 (stereo unspecified)
51 | 88 to 90 °C | CC(C)(C)OC(=O)N1CCN(c2ccc(Br)cn2)CC1
52 | 75 to 78 °C | CCN1CCN(CCc2ccc(-c3ccc4c(Nc5cc(OC)c(Cl)cc5Cl)c(C#N)cnc4c3)cc2)CC1
53 | 212 to 215 °C | Nc1nc(=O)n(C(=O)OCc2ccccc2)cc1F
54 | 268 to 270 °C | CCCNC1=NS(=O)(=O)c2cc([N+](=O)[O-])ccc2N1
55 | 253 to 255 °C | CC(=O)Nc1ccc(/C=C/C(=O)/C=C/c2ccc(NC(C)=O)cc2)cc1
56 | 123 to 125 °C | Cc1c(CO)c(CO)c2n1-c1ccccc1C2
57 | 152 to 153 °C | O=C(c1ccccc1CBr)c1cc(Cl)ccc1CBr
58 | 134 to 135 °C | COC(=O)CCNC1(C)CCN(c2ncc3ncnc(Nc4ccc(F)c(Cl)c4)c3n2)CC1
59 | 168 °C | O=C(O)Cc1nn(Cc2nc3cccc(Cl)c3s2)c(=O)c2ccccc12
60 | 138 °C | CNC(=O)Nc1ccc(Oc2ccc3sncc3c2)c(C(F)(F)F)c1
61 | 168 to 171 °C | O=c1c(-c2ccccc2)c(Cn2ccnc2)oc2ccccc12
62 | 130 °C | COc1ccc(C2(C34CC5CC(CC(C5)C3)C4)N=C(N)N(C)C2=O)cc1OC (stereo unspecified)
63 | 245 to 249 °C | CC(=O)Nc1ccccc1-c1ccc2c(c1)S(=O)(=O)NC(C1CCCCC1)N2 (stereo unspecified)
64 | 158 to 160 °C | CCC(=O)N(Cc1ccc(OC)cc1)c1cc(F)cc(-c2nnn[nH]2)c1
65 | 73 to 75 °C | O=C1CN(c2cccc(OCc3ccc(F)cc3)c2)NC(=O)N1
66 | 251 to 253 °C | CC(C)(C)c1nc(Nc2nc(C(=O)O)cs2)nc(C(C)(C)C)c1O
67 | 75 °C | Cn1[nH]c(=O)n(-c2ccc(Cl)cc2F)c1=S
68 | 188 °C | OCc1cc2cc(OCc3ccccc3)c(F)cc2nc1I
69 | 146 °C | COc1cc(Cc2cnc(NCCO)nc2N)cc(OC)c1OC

Row | SMILES | melting point
70 | CC(C)Cc1nnc2n1-c1ccc(Br)cc1C(c1ccccc1)=NC2 | 93 to 95 °C
71 | COc1ccc(C#Cc2ccc(OC3CN4CCC3CC4)nn2)cc1 (stereo unspecified) | 163 to 165 °C
